# Target: T1, SLC26A9 (Homo sapiens, UniProt Q7LBE3)
# T1 construct: expressed in transfected cells; host or cells: FRT cells coexpressing YFP
# T1 sequence (Q7LBE3 1-791): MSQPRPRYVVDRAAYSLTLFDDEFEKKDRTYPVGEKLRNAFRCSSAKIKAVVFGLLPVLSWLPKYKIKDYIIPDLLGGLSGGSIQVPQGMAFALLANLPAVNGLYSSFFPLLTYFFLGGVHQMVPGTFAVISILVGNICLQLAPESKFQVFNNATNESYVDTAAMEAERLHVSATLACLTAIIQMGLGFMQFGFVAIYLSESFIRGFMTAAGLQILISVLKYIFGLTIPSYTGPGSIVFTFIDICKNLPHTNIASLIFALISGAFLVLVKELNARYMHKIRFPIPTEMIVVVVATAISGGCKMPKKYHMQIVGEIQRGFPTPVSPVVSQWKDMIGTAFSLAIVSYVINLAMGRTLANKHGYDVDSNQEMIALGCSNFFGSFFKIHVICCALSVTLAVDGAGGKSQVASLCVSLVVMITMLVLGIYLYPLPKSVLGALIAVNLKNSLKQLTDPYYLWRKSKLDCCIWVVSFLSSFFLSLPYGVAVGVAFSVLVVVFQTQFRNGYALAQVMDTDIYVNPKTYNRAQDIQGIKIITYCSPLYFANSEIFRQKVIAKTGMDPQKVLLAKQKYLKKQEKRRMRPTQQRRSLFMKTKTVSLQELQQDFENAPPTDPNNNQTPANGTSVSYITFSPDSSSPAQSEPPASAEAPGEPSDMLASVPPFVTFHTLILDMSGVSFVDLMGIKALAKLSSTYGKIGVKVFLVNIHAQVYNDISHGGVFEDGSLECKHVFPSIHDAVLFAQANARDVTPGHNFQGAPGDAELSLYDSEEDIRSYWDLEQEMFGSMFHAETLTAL
# Test: Selectivity: Cl-/I- exchange in FRT cells coexpressing YFP and SLC26A9
# Format: cell-based
# Settings: 25 μM
# Protocol: PAT1inh-B01 selectivity was studied by testing its effects on related SLC26A family anion transporters and the Cl^– channel TMEM16A. These measurements used a similar Cl^–/I^– exchange protocol, but FRT cells separately expressed each of the SLC26A family members or TMEM16A. […] PAT1inh-B01 selectivity was also tested by short-circuit current (Isc) in well-differentiated human bronchial epithelial (HBE) cells, which have a complex ion transport mechanism that includes cystic fibrosis transmembrane conductance regulator (CFTR), epithelial Na^+ channel (ENaC), and Ca^+2-activated chloride channels (CaCCs) ([13]). […] Potential PAT1inh-B01 cytotoxicity was studied in FRT cells.
# Figure 3 PAT1inh-B01 selectivity and cytotoxicity. […] Cl^–/I^– exchange or I^– influx measured in FRT cells coexpressing YFP and SLC26A isoforms or TMEM16A, with data shown for 25 μM PAT1inh-B01, DMSO vehicle control, and 500 μM niflumic acid (positive control for SLC26A transporters) or 10 μM TMinh-23 (positive control for TMEM16A). […] (C) (left) Short-circuit current (Isc) in well-differentiated HBE cells measured in the absence (top) and presence (bottom) of 25 μM PAT1inh-B01. […]
# YFP-based cellular assays of slc26a3, slc26a4, SLC26A9, and TMEM16A function were performed as described previously ([7]). […] The activities of ENaC, CFTR, and CaCC were determined using well-differentiated HBE cells as described previously ([13]). […]
structure (smiles),measurement,value
Cc1c(Br)c(C(F)(F)F)nn1CC(=O)N1CCc2nc3cc(-c4ccccc4)[nH]n3c(=O)c2C1 [PAT1inh-B01],inhibition of SLC26A9,did not significantly inhibit
